Laboratory results: patent publication US20240287138A1, “CYCLIC PEPTIDES FOR INHIBITING TNF RECEPTOR 1 ACTIVITY” (Merck Sharp & Dohme LLC, priority 2023, published 2024)
Numbered stars: 1 amine (or outer) side, 2 acyl side, 3 side chain; on linkers, the order of the positions; unused ones are H or OH. Bridge positions count the residues as written; N and C are the ends. Square brackets hold non-standard residues; d marks the D form. Peptide text beside a SMILES is read from it. Trp(βS-Me,7-OMe) = COc1cccc2c([C@H](C)[C@H](N)C(=O)O)c[nH]c12; Ala(1-bicyclo(1.1.1)pentyl) = N[C@@H](CC12CC(C1)C2)C(=O)O; Phe(3-CH2NH2) = O=C([C@H](Cc1cccc(CN[*:3])c1)N[*:1])[*:2]; Trp(βS-Me) = C[C@@H](c1c[nH]c2ccccc12)[C@H](N)C(=O)O; Phe(4-CH2COOH) = N[C@@H](Cc1ccc(CC(=O)O)cc1)C(=O)O; Trp(4-Cl) = N[C@@H](Cc1c[nH]c2cccc(Cl)c12)C(=O)O; Trp(7-Cl) = N[C@@H](Cc1c[nH]c2c(Cl)cccc12)C(=O)O; Phe(4-CONH2) = NC(=O)c1ccc(C[C@H](N)C(=O)O)cc1; Phe(4-COOH) = N[C@@H](Cc1ccc(C(=O)O)cc1)C(=O)O; Trp(7-aza) = N[C@@H](Cc1c[nH]c2ncccc12)C(=O)O; Phe(4-CH2NH2) = NCc1ccc(C[C@H](N)C(=O)O)cc1; dPro(cis-4-NH2) = N[C@H]1CN[C@@H](C(=O)O)C1; N(CH2CH2COOH)Gly = O=C(O)CCNCC(=O)O; Pip(4-aza) = O=C(O)[C@@H]1CNCCN1; 4Pal = N[C@@H](Cc1ccncc1)C(=O)O; NMeE = CN[C@@H](CCC(=O)O)C(=O)O; Cit = NC(=O)NCCC[C@H](N)C(=O)O; NMeN = CN[C@@H](CC(N)=O)C(=O)O; Pip = O=C(O)[C@@H]1CCCCN1; αMeS = C[C@](N)(CO)C(=O)O; Nle = CCCC[C@H](N)C(=O)O; Sar = CNCC(=O)O

Assays:
[1] = biological target: T1, human TNFR2 ECD protein (Homo sapiens, UniProt P20333); test: SPR off-target binding (selectivity) to human TNFR2 ECD
T1 construct: HRV 3C protease cleavage site (C); 6His (C, cleaved yes); made in house; host or cells: Sf21 insect cells (baculovirus), secreted
T1 sequence (P20333 23-257): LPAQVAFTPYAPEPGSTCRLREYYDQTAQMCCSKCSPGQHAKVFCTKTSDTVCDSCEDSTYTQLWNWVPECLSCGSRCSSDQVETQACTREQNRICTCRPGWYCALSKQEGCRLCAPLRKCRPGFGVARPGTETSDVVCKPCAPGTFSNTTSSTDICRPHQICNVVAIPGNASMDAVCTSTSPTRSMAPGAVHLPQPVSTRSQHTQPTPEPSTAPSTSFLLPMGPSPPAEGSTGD
Method in brief: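 Biotinylated avi-tagged human TNFR1 or TNFR2 ECD, expressed in Sf21 insect cells, captured on streptavidin SPR chip; peptide analytes run in 10 mM HEPES pH 7.4, 150 mM NaCl, 3 mM EDTA, 0.05% P20, 2% DMSO. kon and koff measured, affinity KA calculated.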

[2] = biological target: T2, human soluble TNFR1 (sTNFR1) (Homo sapiens, UniProt P19438); test: Human sTNFR1-peptide displacement assay (LanthaScreen Eu TR-FRET binding assay)
T2 construct: made in house; host or cells: Sf21 (baculovirus)
T2 sequence (P19438 with tags, fused parts or gaps): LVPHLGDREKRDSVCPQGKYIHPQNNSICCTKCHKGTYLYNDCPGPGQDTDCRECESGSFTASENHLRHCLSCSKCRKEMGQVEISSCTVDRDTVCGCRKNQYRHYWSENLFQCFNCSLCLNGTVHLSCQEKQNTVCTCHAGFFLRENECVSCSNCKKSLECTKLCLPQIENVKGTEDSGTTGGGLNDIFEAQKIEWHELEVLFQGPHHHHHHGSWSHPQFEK
Method in brief: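 Readout is the 665/615 nm TR-FRET ratio (Eu anti-His donor, streptavidin-Alexa647 acceptor), normalized to DMSO and saturating displacer, fit by Morrison-based five-parameter logistic for Kd^app. His-tagged sTNFR1 (1-211) prebound to 100 nM biotinylated peptide SEQ ID NO.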

Compound: CCCC[C@@H]1NC(=O)CSC[C@@H](C(N)=O)NC(=O)[C@H]([C@@H](C)c2c[nH]c3c(OC)cccc23)NC(=O)CN(C)C(=O)[C@H](Cc2ccc(O)cc2)NC(=O)[C@H](Cc2ccc(C(=O)O)cc2)NC(=O)[C@](C)(CO)NC(=O)[C@H](Cc2c[nH]c3c(Cl)cccc23)NC(=O)[C@H](Cc2ccc(CC(=O)O)cc2)NC(=O)[C@H](CC(N)=O)NC(=O)[C@H](CCC(=O)O)N(C)C(=O)[C@H](Cc2c[nH]c3ccccc23)NC(=O)[C@@H]2CCCCN2C(=O)[C@H](Cc2ccncc2)NC1=O [SEQ ID NO. 212] ({CH2CO}-[Nle][4Pal][Pip]W[NMeE]N[Phe(4-CH2COOH)][Trp(7-Cl)][αMeS][Phe(4-COOH)]Y[Sar][Trp(βS-Me,7-OMe)]C-NH2; thioether N-14)
- Kd [1]: > 1000 nM
- IC50 [2]: 0.9 nM
- Kd [2]: 0.73 nM

Compound: C[C@@H](c1c[nH]c2ccccc12)[C@@H]1NC(=O)CN(C)C(=O)[C@H](Cc2c[nH]cn2)NC(=O)[C@H](Cc2ccc(C(=O)O)cc2)NC(=O)[C@](C)(CO)NC(=O)[C@H](Cc2c[nH]c3c(Cl)cccc23)NC(=O)[C@H](Cc2ccc(C(=O)O)cc2)NC(=O)[C@H](CC(N)=O)NC(=O)[C@H]2CCCN2C(=O)[C@H]([C@@H](C)c2c[nH]c3ccccc23)NC(=O)[C@H](CO)NC(=O)[C@H](Cc2ccc(CN)cc2)NC(=O)[C@H](CCCNC(N)=O)NC(=O)CSC[C@@H](C(N)=O)NC1=O [SEQ ID NO. 215] ({CH2CO}-[Cit][Phe(4-CH2NH2)]S[Trp(βS-Me)][dP]N[Phe(4-COOH)][Trp(7-Cl)][αMeS][Phe(4-COOH)]H[Sar][Trp(βS-Me)]C-NH2; thioether N-14)
- Kd [1]: > 1000 nM
- IC50 [2]: 2.85 nM

Compound: CCCC[C@@H]1NC(=O)CSC[C@@H](C(N)=O)NC(=O)[C@H]([C@@H](C)c2c[nH]c3c(OC)cccc23)NC(=O)CN(C)C(=O)[C@H](Cc2ccc(O)cc2)NC(=O)[C@H](Cc2ccc(C(=O)O)cc2)NC(=O)[C@](C)(CO)NC(=O)[C@H](Cc2c[nH]c3c(Cl)cccc23)NC(=O)[C@H](Cc2ccc(OC)cc2)NC(=O)[C@H](CC(N)=O)NC(=O)[C@H](CCC(=O)O)N(C)C(=O)[C@H](Cc2c[nH]c3ccccc23)NC(=O)[C@@H]2CNCCN2C(=O)[C@H](Cc2ccncc2)NC1=O [SEQ ID NO. 218] ({CH2CO}-[Nle][4Pal][Pip(4-aza)]W[NMeE]NY(Me)[Trp(7-Cl)][αMeS][Phe(4-COOH)]Y[Sar][Trp(βS-Me,7-OMe)]C-NH2; thioether N-14)
- Kd [1]: > 1000 nM
- IC50 [2]: 1.15 nM

Compound: CCCC[C@@H]1NC(=O)CSC[C@@H](C(N)=O)NC(=O)[C@H]([C@@H](C)c2c[nH]c3c(OC)cccc23)NC(=O)CN(C)C(=O)[C@H](Cc2ccc(O)cc2)NC(=O)[C@H](Cc2ccc(C(N)=O)cc2)NC(=O)[C@](C)(CO)NC(=O)[C@H](Cc2c[nH]c3c(Cl)cccc23)NC(=O)[C@H](Cc2ccncc2)NC(=O)[C@H](CC(N)=O)NC(=O)[C@H]2C[C@@H](N)CN2C(=O)[C@H](Cc2c[nH]c3ncccc23)NC(=O)[C@@H]2CNCCN2C(=O)[C@H](Cc2ccncc2)NC1=O [SEQ ID NO. 219] ({CH2CO}-[Nle][4Pal][Pip(4-aza)][Trp(7-aza)][dPro(cis-4-NH2)]N[4Pal][Trp(7-Cl)][αMeS][Phe(4-CONH2)]Y[Sar][Trp(βS-Me,7-OMe)]C-NH2; thioether N-14)
- Kd [1]: > 1000 nM
- IC50 [2]: 0.3 nM
- Kd [2]: 0.15 nM

Compound: CCCC[C@@H]1NC(=O)CSC[C@@H](C(N)=O)NC(=O)[C@H]([C@@H](C)c2c[nH]c3c(OC)cccc23)NC(=O)CN(C)C(=O)[C@H](Cc2ccc(O)cc2)NC(=O)[C@H](Cc2ccc(C(=O)O)cc2)NC(=O)[C@](C)(CO)NC(=O)[C@H](Cc2c[nH]c3c(Cl)cccc23)NC(=O)[C@H](Cc2ccncc2)NC(=O)[C@H](CC(N)=O)NC(=O)CN(CCC(=O)O)C(=O)[C@H](Cc2c[nH]c3ncccc23)NC(=O)[C@@H]2CCCCN2C(=O)[C@H](Cc2ccncc2)NC1=O [SEQ ID NO. 220] ({CH2CO}-[Nle][4Pal][Pip][Trp(7-aza)][N(CH2CH2COOH)Gly]N[4Pal][Trp(7-Cl)][αMeS][Phe(4-COOH)]Y[Sar][Trp(βS-Me,7-OMe)]C-NH2; thioether N-14)
- Kd [1]: > 1000 nM
- Kd [2]: 0.55 nM

Compound: CN1CC(=O)N[C@@H](Cc2c[nH]c3cccc(Cl)c23)C(=O)N[C@H](C(N)=O)CSCC(=O)N[C@@H](CC23CC(C2)C3)C(=O)N[C@@H](Cc2cccc(CN)c2)C(=O)N[C@@H](CO)C(=O)N[C@@H](Cc2c[nH]c3c(Cl)cccc23)C(=O)N2CCC[C@@H]2C(=O)N(C)[C@@H](CC(N)=O)C(=O)N[C@@H](Cc2ccc(C(=O)O)cc2)C(=O)N[C@@H](Cc2c[nH]c3c(Cl)cccc23)C(=O)N[C@@](C)(CO)C(=O)N[C@@H](Cc2ccc(C(=O)O)cc2)C(=O)N[C@@H](Cc2cccc(CN)c2)C1=O [SEQ ID NO. 222] ({CH2CO}-[Ala(1-bicyclo(1.1.1)pentyl)][Phe(3-CH2NH2)]S[Trp(7-Cl)][dP][NMeN][Phe(4-COOH)][Trp(7-Cl)][αMeS][Phe(4-COOH)][Phe(3-CH2NH2)][Sar][Trp(4-Cl)]C-NH2; thioether N-14)
- Kd [1]: > 1000 nM
- IC50 [2]: 1.73 nM
